Measurements published in PMC10079235 (PLOS Neglected Tropical Diseases, 2023).
Counter-ions that a name gives are not always drawn. Like-named read-outs stand apart in the source and are kept apart here.

Legend:
HCT-8/WT cells = experiment: MTS cytotoxicity (drug tolerance) assay; details: for TC50: WT cells, no drug selection, MTS assay
Procedure: (§1) Host cell drug tolerance to specified inhibitors was evaluated by 3-(4,5-dimethylthiazol-2-yl)-5-(3-carboxymethoxyphenyl)-2-(4-sulfophenyl)-2H-tetrazolium (MTS) assay. WT and transgenic host cells were seeded in 96-well plates (10,000 cells/well) and cultured for 24 h, followed by the addition of specified compounds at serially diluted concentrations and continued culture for 41 h. After 3 washes with serum-free medium, MTS solution (Saint-Bio, Shanghai, China) was added into the plates (20 μL/well) and incubated at 37°C for 2 h. Optical density at 490 nm (OD490) was measured using a Synergy LX multi-mode reader (BioTek, Winooski, VT). Drug tolerance was indicated by half-maximal cytotoxic concentrations (TC50 values) calculated by nonlinear regression using 4PL model. Selectivity index (SI) for each compound was determined by the ratio between TC50 and EC50 values (SI = TC50/EC50).

HCT-8/WT(NTZ) cells = experiment: MTS cytotoxicity (drug tolerance) assay
Procedure: as §1
(§2) Surviving cells were allowed to recover in drug-free medium for 3–5 d to near confluence (round 1). The selection/recovery cycle were repeated once (round 2). […] Finally, all cells were cultured at the final selection concentrations of PTX or NTZ for ≥7 d, followed by culture in drug-free medium for 14 d. At this time point, cells were used for cytotoxicity and efficacy assays or cryopreserved in a liquid nitrogen tank. The resulting cell lines after PTX or NTZ selection were designated as WT(PTX), NC(PTX) and MDR1(PTX), or WT(NTZ), NC(NTZ) and MDR1(NTZ), respectively (Tables 1 and S2).

HCT-8/NC(NTZ) cells = experiment: MTS cytotoxicity (drug tolerance) assay
Procedure: as §1, §2

HCT-8/MDR1 cells [1] = experiment: MTS cytotoxicity (drug tolerance) assay; details: for TC50: MDR1 cells, no drug selection, MTS assay
HCT-8/NC cells [2] = experiment: MTS cytotoxicity (drug tolerance) assay; details: no drug selection
HCT-8/WT(PTX) cells = experiment: MTS cytotoxicity (drug tolerance) assay
Procedure: as §1
(§3) Surviving cells were allowed to recover in drug-free medium for 3–5 d to near confluence (round 1). The selection/recovery cycle were repeated once (round 2). […] The resulting cell lines after PTX or NTZ selection were designated as WT(PTX), NC(PTX) and MDR1(PTX), or WT(NTZ), NC(NTZ) and MDR1(NTZ), respectively (Tables 1 and S2).

HCT-8/MDR1(PTX) cells = details: for TC50: MDR1(PTX) cells; for Pct change of TC50 (vs NC): MDR1(PTX) vs NC cells
Procedure: as §1, §3

HCT-8/NC cells [3] = details: human, 41 h
Cryptosporidium parvum = experiment: Anti-cryptosporidial efficacy assay (44-h infection/qRT-PCR); details: for EC50: Cryptosporidium parvum; for On-target (Eon) rate at EC50 / On-target rate at EC50: Eq 2; for Action on parasite target (on-target) conclusion: MDR1-transgenic host cell model; for Eoff, proportion of off-parasite-target effect / Eon, proportion of on-parasite-target effect: Eq 3 and 4
HCT-8/MDR1(NTZ) cells = experiment: MTS cytotoxicity (drug tolerance) assay
Procedure: as §1, §3

HCT-8/NC(PTX) cells = experiment: MTS cytotoxicity (drug tolerance) assay
Procedure: as §1, §3

HCT-8/MDR1 cells [4] = details: human, 41 h
[5] = WT(NTZ) cells, after selection by NTZ
[6] = NC(NTZ) cells, after selection by NTZ
[7] = WT(PTX) cells, after selection by PTX
[8] = after selection by NTZ vs parent cell line
[9] = after selection by PTX vs parent cell line
[10] = MDR1, read-out: Antiparasitic efficacy (EC50), C. parvum cultured in MDR1(PTX) host cells
[11] = read-out: Antiparasitic efficacy (EC50), C. parvum cultured in NC host cells
[12] = read-out: Antiparasitic efficacy (EC50), C. parvum cultured in WT host cells
[13] = at EC10, MDR1(PTX) vs. NC model
[14] = at EC20, MDR1(PTX) vs. NC model
[15] = at EC30, MDR1(PTX) vs. NC model
[16] = at EC40, MDR1(PTX) vs. NC model
[17] = at EC50, MDR1(PTX) vs. NC model
[18] = at EC60, MDR1(PTX) vs. NC model
[19] = at EC70, MDR1(PTX) vs. NC model
[20] = at EC80, MDR1(PTX) vs. NC model
[21] = at EC90, MDR1(PTX) vs. NC model
[22] = at EC10, MDR1(NTZ) vs. NC model
[23] = at EC20, MDR1(NTZ) vs. NC model
[24] = at EC30, MDR1(NTZ) vs. NC model
[25] = at EC40, MDR1(NTZ) vs. NC model
[26] = at EC50, MDR1(NTZ) vs. NC model
[27] = at EC60, MDR1(NTZ) vs. NC model
[28] = at EC70, MDR1(NTZ) vs. NC model
[29] = at EC80, MDR1(NTZ) vs. NC model
[30] = at EC90, MDR1(NTZ) vs. NC model

## CN(C)C(=O)C(CCN1CCC(O)(c2ccc(Cl)cc2)CC1)(c1ccccc1)c1ccccc1 [Loperamide, Loperamide HCl]
HCT-8/WT cells
  TC50: 15.96 µM
HCT-8/WT(NTZ) cells; [5]
  TC50: 16.23 µM
HCT-8/NC(NTZ) cells; [6]
  TC50: 15.64 µM
HCT-8/MDR1 cells [1]
  TC50: 16.49 µM
HCT-8/NC cells [2]
  TC50: 16.08 µM
HCT-8/WT(PTX) cells; [7]
  TC50: 16.42 µM

## O=C1c2c(O)ccc(O)c2C(=O)c2c(NCCNCCO)ccc(NCCNCCO)c21 [Mitoxantrone, Mitoxantrone 2HCl]
HCT-8/WT cells
  TC50: 4.31 µM
HCT-8/WT(NTZ) cells; [8]
  Fold increase of TC50 WT(NTZ) vs. WT: 0.96
HCT-8/WT(NTZ) cells; human, 41 h
  TC50: 4.15 µM
HCT-8/NC(NTZ) cells; [8]
  Fold increase of TC50 NC(NTZ) vs. NC: 1.02
HCT-8/NC(NTZ) cells; human, 41 h
  TC50: 4.19 µM
HCT-8/MDR1 cells [1]
  TC50: 6.79 µM
HCT-8/MDR1 cells [1]; ratio of TC50, MDR1 vs NC cells
  Fold change of TC50 MDR1/NC: 1.65
HCT-8/MDR1(PTX) cells; after selection by PTX
  TC50: 11.21 µM
  Fold change of TC50 MDR1(PTX) vs. NC: 2.73
HCT-8/MDR1(PTX) cells
  Pct change of TC50 (vs NC): 172.7%
HCT-8/MDR1(PTX) cells; listed as MXT
  Pct change of TC50 (vs NC): 172.7%
HCT-8/MDR1(PTX) cells; [9]
  Fold change of TC50 MDR1(PTX) vs. MDR1: 1.65
HCT-8/MDR1(PTX) cells; ratio of TC50
  Fold change of TC50 MDR1(PTX)/NC(PTX): 2.58
HCT-8/NC cells [3]
  TC50: 4.11 µM
Cryptosporidium parvum; [10]
  EC50: 4.16 µM
Cryptosporidium parvum; [11]
  EC50: 2.04 µM
Cryptosporidium parvum; [12]
  EC50: 2.07 µM
Cryptosporidium parvum; MDR1(PTX) cell model
  On-target (Eon) rate at EC50: 39.8%
Cryptosporidium parvum; MDR1(PTX) cell model, listed as MXT
  On-target (Eon) rate at EC50: 39.8%
Cryptosporidium parvum; MDR1(PTX) cell model, from Pct changes of EC50 and TC50 (Eq 1)
  Off-target (Eoff) rate at EC50: 60.2%
Cryptosporidium parvum
  Action on parasite target (on-target) conclusion: partially on-target
Cryptosporidium parvum; TC50/EC50 in MDR1(PTX) cells
  Selectivity index (SI): 2.69
Cryptosporidium parvum; TC50/EC50 in NC cells
  Selectivity index (SI): 2.01
Cryptosporidium parvum; TC50/EC50 in WT cells
  Selectivity index (SI, k): 2.08
Cryptosporidium parvum; [13]
  Eoff, proportion of off-parasite-target effect: 39.80%
  Eon, proportion of on-parasite-target effect: 60.20%
Cryptosporidium parvum; [14]
  Eoff, proportion of off-parasite-target effect: 47.10%
  Eon, proportion of on-parasite-target effect: 52.90%
Cryptosporidium parvum; [15]
  Eoff, proportion of off-parasite-target effect: 52.00%
  Eon, proportion of on-parasite-target effect: 48.00%
Cryptosporidium parvum; [16]
  Eoff, proportion of off-parasite-target effect: 56.10%
  Eon, proportion of on-parasite-target effect: 43.90%
Cryptosporidium parvum; [17]
  Eoff, proportion of off-parasite-target effect: 60.0%
  Eon, proportion of on-parasite-target effect: 40.0%
Cryptosporidium parvum; [18]
  Eoff, proportion of off-parasite-target effect: 63.90%
  Eon, proportion of on-parasite-target effect: 36.10%
Cryptosporidium parvum; [19]
  Eoff, proportion of off-parasite-target effect: 68.20%
  Eon, proportion of on-parasite-target effect: 31.80%
Cryptosporidium parvum; [20]
  Eoff, proportion of off-parasite-target effect: 73.60%
  Eon, proportion of on-parasite-target effect: 26.40%
Cryptosporidium parvum; [21]
  Eoff, proportion of off-parasite-target effect: 81.90%
  Eon, proportion of on-parasite-target effect: 18.10%
HCT-8/MDR1(NTZ) cells; MDR1(NTZ) cells, after selection by NTZ
  TC50: 6.74 µM
HCT-8/MDR1(NTZ) cells; after selection by NTZ
  Fold increase of TC50 MDR1(NTZ) vs. NC: 1.64
HCT-8/MDR1(NTZ) cells; [8]
  Fold increase of TC50 MDR1(NTZ) vs. MDR1: 0.99
HCT-8/WT(PTX) cells; [9]
  Fold change of TC50 WT(PTX) vs. WT: 0.98
HCT-8/WT(PTX) cells; human, 41 h
  TC50: 4.23 µM
HCT-8/NC(PTX) cells; [9]
  Fold change of TC50 NC(PTX) vs. NC: 1.06
HCT-8/NC(PTX) cells; human, 41 h
  TC50: 4.34 µM

## CC(=O)Oc1ccccc1C(=O)Nc1ncc([N+](=O)[O-])s1 [Nitazoxanide]
HCT-8/MDR1 cells [4]
  TC50: 25.28 µM
HCT-8/WT cells
  TC50: 26.75 µM
HCT-8/WT cells; percent inhibition of WT host cell growth at the EC50 concentration, calculated with Eq 5 from k and h
  Calculated cytotoxicity at EC50: 2.73%
HCT-8/WT(NTZ) cells; [5]
  TC50: 38.70 µM
HCT-8/NC(NTZ) cells; [6]
  TC50: 39.09 µM
HCT-8/MDR1(PTX) cells; after selection by PTX
  TC50: 25.59 µM
Cryptosporidium parvum; MDR1, read-out: Antiparasitic efficacy (EC50), C. parvum cultured in MDR1(NTZ) host cells
  EC50: 1.07 µM
Cryptosporidium parvum; [10]
  EC50: 1.06 µM
Cryptosporidium parvum; [11]
  EC50: 1.11 µM
Cryptosporidium parvum; [12]
  EC50: 1.09 µM
Cryptosporidium parvum; MDR1(NTZ) cell model, Eq 1
  Off-target rate at EC50: -3.6%
Cryptosporidium parvum; MDR1(NTZ) cell model
  On-target rate at EC50: 103.6%
Cryptosporidium parvum; MDR1(NTZ) cell model, listed as NTZ
  On-target rate at EC50: 103.6%
Cryptosporidium parvum
  Action on parasite target (on-target) conclusion: 100% on-target
Cryptosporidium parvum; [22]
  Eoff, proportion of off-parasite-target effect: -7.90%
  Eon, proportion of on-parasite-target effect: 107.90%
Cryptosporidium parvum; [23]
  Eoff, proportion of off-parasite-target effect: -6.10%
  Eon, proportion of on-parasite-target effect: 106.10%
Cryptosporidium parvum; [24]
  Eoff, proportion of off-parasite-target effect: -5.10%
  Eon, proportion of on-parasite-target effect: 105.10%
Cryptosporidium parvum; [25]
  Eoff, proportion of off-parasite-target effect: -4.30%
  Eon, proportion of on-parasite-target effect: 104.30%
Cryptosporidium parvum; [26]
  Eoff, proportion of off-parasite-target effect: −3.6%
  Eon, proportion of on-parasite-target effect: 103.6%
Cryptosporidium parvum; [27]
  Eoff, proportion of off-parasite-target effect: -2.90%
  Eon, proportion of on-parasite-target effect: 102.90%
Cryptosporidium parvum; [28]
  Eoff, proportion of off-parasite-target effect: -2.30%
  Eon, proportion of on-parasite-target effect: 102.30%
Cryptosporidium parvum; [29]
  Eoff, proportion of off-parasite-target effect: -1.50%
  Eon, proportion of on-parasite-target effect: 101.50%
Cryptosporidium parvum; [30]
  Eoff, proportion of off-parasite-target effect: -0.50%
  Eon, proportion of on-parasite-target effect: 100.50%
HCT-8/NC cells [2]
  TC50: 25.90 µM
HCT-8/MDR1(NTZ) cells; MDR1(NTZ) vs NC cells
  Pct change of TC50 (vs NC): 101.5%
HCT-8/MDR1(NTZ) cells; human, 41 h
  TC50: 52.19 µM
HCT-8/WT(PTX) cells; [7]
  TC50: 25.37 µM
HCT-8/NC(PTX) cells; NC(PTX) cells, after selection by PTX
  TC50: 26.76 µM
